Experimental data reported in patent publication US20120040009A1, “PARTICULATE PHARMACEUTICAL COMPOSITION WITH AN OPIOID AND AN OPIOID ANTAGONIST” (priority 2009, published 2012).

Settings: non-opioid-dependent patients; intravenous administration of 200 mg morphine

With `C=CCN1CC[C@]23c4c5ccc(O)c4O[C@H]2C(=O)CC[C@@]3(O)[C@H]1C5` [naloxone, (5R,9R,13S,14S)-17-allyl-3,14-dihydroxy-4,5-epoxymorphinan-6-on] the “naloxone sufficient to trigger discrete withdrawal symptoms” value was 0.4 mg.
